{
  "source": "patent US20220411362A1",
  "about": "“DITERPENOID COMPOUNDS THAT ACT ON PROTEIN KINASE C (PKC)” (K-Gen, Inc., priority 2019, published 2022)",
  "key": {"[1]": {"molecular_target": "T1, C1b domain of human PKD1 (PKCμ) (Homo sapiens, UniProt Q15139)", "T1 construct": "Genes encoding C1b domains of human PKCα, δ, ε, θ, and PKD1 (PKCμ) were synthesized; made in house; host or cells: E. coli BL21(DE3)", "T1 sequence (Q15139 270-320 limits assumed)": "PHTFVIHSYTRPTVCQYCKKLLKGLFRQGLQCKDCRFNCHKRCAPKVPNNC", "test": "biochemical", "format": "binding", "how_it_was_run": "(§1)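 Ki derived by Cheng-Prusoff from IC50, with each protein batch's measured ^3H-PDBu Kd. Displacement of ^3H-PDBu from E. coli-produced GST-fused C1b domains or full-length human PKC was run 10 min at 37°C plus 20 min on ice, with filter capture and scintillation counting.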"}, "[2]": {"system": "HL-60 (Leukemia) cell line", "test": "Proliferation of HL-60", "format": "cell-based", "settings": "for ratio of (IC50 of K01)/(IC50 of compound), HL-60: value in parenthesis; for IC50: Homo sapiens, HL-60, read-out: IC50 in μM HL-60 (Leukemia)", "how_it_was_run": "(§2)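 Per-line seeding (KP-4 800-1000; HL-60 5000; Namalwa and Mino 5000-10000 cells/well), then 96 h with compound in ≤0.25% DMSO. Luminescence measured 10 min post CellTiter Glo; IC50 and % top inhibition derived from DMSO-normalised inhibition.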"}, "[3]": {"system": "phosphorylation of CaMKii at T286 in Panc1 cells", "test": "CaMKii phosphorylation in Panc1 cell line (Western blot)", "format": "cell-based", "settings": "0.02 μM and 0.1 M, 48 hours (FIG. 5)", "description": "Panc1 (a pancreatic cancer cell line) cells (˜5-8 millions) were seeded in 10 cm dishes (or ˜2 millions in 6 cm dishes) and treated next day with prostratin (K-101, 0.2 μM and 1 μM) or 0.02 μM and […] of K101-C1347, -C134801, and -C134802 for 48 hours. Cells were then collected/lysed for Western blot analysis. Protein quantification, SDS-PAGE, and Western blot procedures were performed as described in Example 65, except that a different lysis buffer (1 ml of 10×TNE [20 mL 1M Tris pH7.5; 30 mL 5M NaCl; 2 mL 0.5M EDTA; 48 mL d2H2O], 1 ml of 10% NP40, 7.7 mL of dH2O, 100 μL of 10× Protease inhibitors, 100 μL of 10× Phosphatase inhibitors, and 10 μl DTT) was used. To assess the effect of diterpenoid compounds on CaMKii phosphorylation, a phospho-specific antibody P-CaMKii (T286) (Abcam, cat #32678) was used for detection. Phosphorylation of CaMKii at T286 is a marker for activation of CaMKii kinase in the Wnt/Ca^2+ signaling pathway when […] and thus a downstream marker for inhibition of K-Ras stemness (Wang et al., Cell. 2015, 163(5):1237-51)."}, "[4]": {"system": "KP-4 (Pancreatic) cell line", "test": "Proliferation of KP-4", "format": "cell-based", "settings": "Homo sapiens, KP-4, read-out: IC50 in μM KP-4 (Pancreatic)", "how_it_was_run": "as §2"}, "C1b domain of human PKCθ": {"molecular_target": "T2, C1b domain of human PKCθ (Homo sapiens, UniProt Q04759)", "T2 construct": "Genes encoding C1b domains of human PKCα, δ, ε, θ, and PKD1 (PKCμ) were synthesized; made in house; host or cells: E. coli BL21(DE3)", "T2 sequence (Q04759 231-281 limits assumed)": "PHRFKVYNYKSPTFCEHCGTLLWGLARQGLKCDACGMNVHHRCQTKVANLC", "test": "Competitive 3H-PDBu binding to C1b domain of PKCθ", "how_it_was_run": "as §1"}},
  "note": "pKi: −log10 of the molar value.",
  "data": [
    {"smiles": "CC1=C[C@H]2[C@@]3(O)[C@H](C)C[C@]4(OC(=O)[C@@H](N)CCCCCCc5ccccc5)[C@H]([C@@H]3C=C(CO)C[C@]2(O)C1=O)C4(C)C", "note": "[Compound K101-C134802]", "values": [
      {"measurement": "pKi", "setting": "[1]", "result": "> 8.30"},
      {"measurement": "ratio of (IC50 of K01)/(IC50 of compound), HL-60", "setting": "[2]", "result": 12.1},
      {"measurement": "IC50", "setting": "[2]", "result": "0.001 to 0.01", "unit": "µM"},
      {"measurement": "phosphorylation of CaMKii at T286", "setting": "[3]", "result": "induced phosphorylation of CaMKii at T286"},
      {"measurement": "IC50", "setting": "[4]", "result": "0.001 to 0.01", "unit": "µM"},
      {"measurement": "pKi", "setting": "C1b domain of human PKCθ", "result": "> 8.30"}
    ]},
    {"smiles": "CC1=C[C@H]2[C@@]3(O)[C@H](C)C[C@]4(OC(=O)[C@H](N)CCCCCCc5ccccc5)[C@H]([C@@H]3C=C(CO)C[C@]2(O)C1=O)C4(C)C", "note": "[Compound K101-C134801]", "values": [
      {"measurement": "pKi", "setting": "[1]", "result": "> 8.30"},
      {"measurement": "ratio of (IC50 of K01)/(IC50 of compound), HL-60", "setting": "[2]", "result": 4.43},
      {"measurement": "IC50", "setting": "[2]", "result": "0.01 to 0.03", "unit": "µM"},
      {"measurement": "phosphorylation of CaMKii at T286", "setting": "[3]", "result": "induced phosphorylation of CaMKii at T286"},
      {"measurement": "IC50", "setting": "[4]", "result": "0.03 to 0.06", "unit": "µM"},
      {"measurement": "pKi", "setting": "C1b domain of human PKCθ", "result": "7.52 to 9.00"}
    ]},
    {"smiles": "CC1=C[C@H]2[C@@]3(O)[C@H](C)C[C@]4(OC(=O)[C@@H](N)CC5CCCCC5)[C@H]([C@@H]3C=C(CO)C[C@]2(O)C1=O)C4(C)C", "note": "[Compound K101-C1327]", "values": [
      {"measurement": "pKi", "setting": "[1]", "result": "> 8.30"},
      {"measurement": "ratio of (IC50 of K01)/(IC50 of compound), HL-60", "setting": "[2]", "result": 2.32},
      {"measurement": "IC50", "setting": "[2]", "result": "0.03 to 0.06", "unit": "µM"},
      {"measurement": "IC50", "setting": "[4]", "result": "0.1 to 0.2", "unit": "µM"},
      {"measurement": "pKi", "setting": "C1b domain of human PKCθ", "result": "8.00 to 8.30"}
    ]},
    {"smiles": "CC1=C[C@H]2[C@@]3(O)[C@H](C)C[C@]4(OC(=O)[C@@H](N)[C@]56C[C@H]7C[C@H](C[C@H](C7)C5)C6)[C@H]([C@@H]3C=C(CO)C[C@]2(O)C1=O)C4(C)C", "note": "[Compound K101-C1347]", "values": [
      {"measurement": "pKi", "setting": "[1]", "result": "> 8.30"},
      {"measurement": "ratio of (IC50 of K01)/(IC50 of compound), HL-60", "setting": "[2]", "result": 16.2},
      {"measurement": "IC50", "setting": "[2]", "result": "0.001 to 0.01", "unit": "µM"},
      {"measurement": "phosphorylation of CaMKii at T286", "setting": "[3]", "result": "induced phosphorylation of CaMKii at T286"},
      {"measurement": "IC50", "setting": "[4]", "result": "0.001 to 0.01", "unit": "µM"},
      {"measurement": "pKi", "setting": "C1b domain of human PKCθ", "result": "> 8.30"}
    ]}
  ]
}
